Columns and labels:
Experiment in all cases: KINOMEscan competition binding
Conditions in all cases: compound 10.0 µM
[1] = molecular target: BMPR1B (human) (UniProt O00238)
[2] = tested on: BRAF (human), P15056 [V600E]
[3] = molecular target: BRSK2 (human) (UniProt Q8IWQ3)
[4] = molecular target: CAMK2G (human) (UniProt Q13555)
[5] = molecular target: CDC2L2 (human) (UniProt Q9UQ88)
[6] = molecular target: CDK16 (human) (UniProt Q00536)
[7] = molecular target: CDK7 (human) (UniProt P50613)
[8] = molecular target: CSNK1A1 (human) (UniProt P48729)
[9] = molecular target: DAPK1 (human) (UniProt P53355)
[10] = molecular target: DCLK3 (human) (UniProt Q9C098)
[11] = molecular target: EPHA3 (human) (UniProt P29320)
[12] = molecular target: EPHB6 (human) (UniProt O15197)
[13] = molecular target: FGFR3 (human) (UniProt P22607)
[14] = tested on: FLT3 (human), P36888 [D835H]
[15] = molecular target: HIPK1 (human) (UniProt Q86Z02)
[16] = molecular target: INSR (human) (UniProt P06213)
[17] = molecular target: JAK3 JH1 catalytic (human) (UniProt P52333)
[18] = tested on: KIT (human), P10721 [A829P]
[19] = molecular target: MAP2K2 (human) (UniProt P36507)
[20] = molecular target: MAP3K11 (human) (UniProt Q16584)
[21] = molecular target: MAP3K7 (human) (UniProt O43318)
[22] = molecular target: MAP3K9 (human) (UniProt P80192)
[23] = molecular target: MAST1 (human) (UniProt Q9Y2H9)
[24] = molecular target: MET (human) (UniProt P08581)
[25] = molecular target: MYLK3 (human) (UniProt Q32MK0)
[26] = molecular target: NIM1 (human) (UniProt Q8IY84)
[27] = molecular target: NTRK3 (human) (UniProt Q16288)
[28] = molecular target: PAK7 (human) (UniProt Q9P286)
[29] = molecular target: PIM2 (human) (UniProt Q9P1W9)
[30] = molecular target: PLK3 (human) (UniProt Q9H4B4)
[31] = molecular target: PRKAA1 (human) (UniProt Q13131)
[32] = molecular target: PRKCE (human) (UniProt Q02156)
[33] = molecular target: PRKCH (human) (UniProt P24723)
[34] = molecular target: PRKCQ (human) (UniProt Q04759)
[35] = molecular target: PTK6 (human) (UniProt Q13882)
[36] = molecular target: ROS1 (human) (UniProt P08922)
[37] = molecular target: RPS6KA6 KD1 (human) (UniProt Q9UK32)
[38] = molecular target: SRPK1 (human) (UniProt Q96SB4)
[39] = molecular target: TLK2 (human) (UniProt Q86UE8)
[40] = molecular target: WEE2 (human) (UniProt P0C1S8)
[41] = molecular target: ZAP70 (human) (UniProt P43403)

Sequence of EPHA3 (human) (P29320 whole entry, looked up): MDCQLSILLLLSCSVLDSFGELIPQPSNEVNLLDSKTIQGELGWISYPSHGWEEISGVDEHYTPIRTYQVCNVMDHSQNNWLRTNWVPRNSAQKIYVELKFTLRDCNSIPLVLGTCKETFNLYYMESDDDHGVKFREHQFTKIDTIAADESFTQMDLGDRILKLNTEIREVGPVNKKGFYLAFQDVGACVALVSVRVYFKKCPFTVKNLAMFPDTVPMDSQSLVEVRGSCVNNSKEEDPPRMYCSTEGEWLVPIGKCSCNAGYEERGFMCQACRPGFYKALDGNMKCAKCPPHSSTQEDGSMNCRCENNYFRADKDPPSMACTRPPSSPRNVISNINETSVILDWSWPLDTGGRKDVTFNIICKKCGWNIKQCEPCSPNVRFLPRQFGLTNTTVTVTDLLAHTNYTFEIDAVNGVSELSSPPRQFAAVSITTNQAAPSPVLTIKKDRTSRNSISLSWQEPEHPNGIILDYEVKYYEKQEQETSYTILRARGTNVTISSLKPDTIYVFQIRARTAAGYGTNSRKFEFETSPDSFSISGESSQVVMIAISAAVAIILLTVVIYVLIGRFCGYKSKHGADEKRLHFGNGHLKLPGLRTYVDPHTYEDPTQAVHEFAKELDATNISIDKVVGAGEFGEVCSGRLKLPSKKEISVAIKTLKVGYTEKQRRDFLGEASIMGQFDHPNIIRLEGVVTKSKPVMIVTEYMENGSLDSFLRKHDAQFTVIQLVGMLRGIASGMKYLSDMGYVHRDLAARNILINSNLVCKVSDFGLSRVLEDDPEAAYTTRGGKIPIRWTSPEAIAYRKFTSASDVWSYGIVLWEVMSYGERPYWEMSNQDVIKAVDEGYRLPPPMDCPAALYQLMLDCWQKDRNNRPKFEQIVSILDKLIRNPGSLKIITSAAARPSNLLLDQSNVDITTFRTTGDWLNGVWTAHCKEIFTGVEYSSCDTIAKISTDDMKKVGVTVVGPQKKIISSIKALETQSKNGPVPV
Sequence of CDK7 (human) (P50613 whole entry, looked up): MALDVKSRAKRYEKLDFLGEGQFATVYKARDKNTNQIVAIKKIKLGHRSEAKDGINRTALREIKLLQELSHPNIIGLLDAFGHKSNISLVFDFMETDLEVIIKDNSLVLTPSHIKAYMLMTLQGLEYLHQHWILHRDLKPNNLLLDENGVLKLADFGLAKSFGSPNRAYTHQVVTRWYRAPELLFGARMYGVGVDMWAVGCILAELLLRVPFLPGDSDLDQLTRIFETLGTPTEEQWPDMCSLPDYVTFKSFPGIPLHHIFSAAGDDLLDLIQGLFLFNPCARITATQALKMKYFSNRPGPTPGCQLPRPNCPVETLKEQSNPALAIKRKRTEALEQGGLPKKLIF
Sequence of NTRK3 (human) (Q16288 whole entry, looked up): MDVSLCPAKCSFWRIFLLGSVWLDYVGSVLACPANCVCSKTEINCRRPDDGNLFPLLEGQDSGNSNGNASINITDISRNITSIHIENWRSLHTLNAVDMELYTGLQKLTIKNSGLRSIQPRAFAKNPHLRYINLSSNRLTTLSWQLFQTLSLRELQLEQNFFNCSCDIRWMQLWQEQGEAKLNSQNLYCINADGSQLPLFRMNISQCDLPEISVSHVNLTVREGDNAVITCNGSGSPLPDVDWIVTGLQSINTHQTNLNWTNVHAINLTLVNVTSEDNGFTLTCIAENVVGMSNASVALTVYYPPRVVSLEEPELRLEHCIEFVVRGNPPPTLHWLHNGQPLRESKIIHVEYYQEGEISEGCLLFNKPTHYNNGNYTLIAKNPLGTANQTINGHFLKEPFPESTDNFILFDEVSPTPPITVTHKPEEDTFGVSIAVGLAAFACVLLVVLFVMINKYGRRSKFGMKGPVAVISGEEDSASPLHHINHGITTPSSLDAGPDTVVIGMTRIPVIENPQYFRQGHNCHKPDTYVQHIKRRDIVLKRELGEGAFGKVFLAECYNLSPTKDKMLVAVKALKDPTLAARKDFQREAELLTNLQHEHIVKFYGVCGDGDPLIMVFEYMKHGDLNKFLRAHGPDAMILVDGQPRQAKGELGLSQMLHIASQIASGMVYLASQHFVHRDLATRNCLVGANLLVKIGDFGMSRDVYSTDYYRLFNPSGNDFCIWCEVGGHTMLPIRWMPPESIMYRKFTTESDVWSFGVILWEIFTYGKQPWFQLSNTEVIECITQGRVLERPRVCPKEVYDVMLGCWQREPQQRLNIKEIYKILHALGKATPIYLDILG
Sequence of ROS1 (human) (P08922 whole entry, looked up): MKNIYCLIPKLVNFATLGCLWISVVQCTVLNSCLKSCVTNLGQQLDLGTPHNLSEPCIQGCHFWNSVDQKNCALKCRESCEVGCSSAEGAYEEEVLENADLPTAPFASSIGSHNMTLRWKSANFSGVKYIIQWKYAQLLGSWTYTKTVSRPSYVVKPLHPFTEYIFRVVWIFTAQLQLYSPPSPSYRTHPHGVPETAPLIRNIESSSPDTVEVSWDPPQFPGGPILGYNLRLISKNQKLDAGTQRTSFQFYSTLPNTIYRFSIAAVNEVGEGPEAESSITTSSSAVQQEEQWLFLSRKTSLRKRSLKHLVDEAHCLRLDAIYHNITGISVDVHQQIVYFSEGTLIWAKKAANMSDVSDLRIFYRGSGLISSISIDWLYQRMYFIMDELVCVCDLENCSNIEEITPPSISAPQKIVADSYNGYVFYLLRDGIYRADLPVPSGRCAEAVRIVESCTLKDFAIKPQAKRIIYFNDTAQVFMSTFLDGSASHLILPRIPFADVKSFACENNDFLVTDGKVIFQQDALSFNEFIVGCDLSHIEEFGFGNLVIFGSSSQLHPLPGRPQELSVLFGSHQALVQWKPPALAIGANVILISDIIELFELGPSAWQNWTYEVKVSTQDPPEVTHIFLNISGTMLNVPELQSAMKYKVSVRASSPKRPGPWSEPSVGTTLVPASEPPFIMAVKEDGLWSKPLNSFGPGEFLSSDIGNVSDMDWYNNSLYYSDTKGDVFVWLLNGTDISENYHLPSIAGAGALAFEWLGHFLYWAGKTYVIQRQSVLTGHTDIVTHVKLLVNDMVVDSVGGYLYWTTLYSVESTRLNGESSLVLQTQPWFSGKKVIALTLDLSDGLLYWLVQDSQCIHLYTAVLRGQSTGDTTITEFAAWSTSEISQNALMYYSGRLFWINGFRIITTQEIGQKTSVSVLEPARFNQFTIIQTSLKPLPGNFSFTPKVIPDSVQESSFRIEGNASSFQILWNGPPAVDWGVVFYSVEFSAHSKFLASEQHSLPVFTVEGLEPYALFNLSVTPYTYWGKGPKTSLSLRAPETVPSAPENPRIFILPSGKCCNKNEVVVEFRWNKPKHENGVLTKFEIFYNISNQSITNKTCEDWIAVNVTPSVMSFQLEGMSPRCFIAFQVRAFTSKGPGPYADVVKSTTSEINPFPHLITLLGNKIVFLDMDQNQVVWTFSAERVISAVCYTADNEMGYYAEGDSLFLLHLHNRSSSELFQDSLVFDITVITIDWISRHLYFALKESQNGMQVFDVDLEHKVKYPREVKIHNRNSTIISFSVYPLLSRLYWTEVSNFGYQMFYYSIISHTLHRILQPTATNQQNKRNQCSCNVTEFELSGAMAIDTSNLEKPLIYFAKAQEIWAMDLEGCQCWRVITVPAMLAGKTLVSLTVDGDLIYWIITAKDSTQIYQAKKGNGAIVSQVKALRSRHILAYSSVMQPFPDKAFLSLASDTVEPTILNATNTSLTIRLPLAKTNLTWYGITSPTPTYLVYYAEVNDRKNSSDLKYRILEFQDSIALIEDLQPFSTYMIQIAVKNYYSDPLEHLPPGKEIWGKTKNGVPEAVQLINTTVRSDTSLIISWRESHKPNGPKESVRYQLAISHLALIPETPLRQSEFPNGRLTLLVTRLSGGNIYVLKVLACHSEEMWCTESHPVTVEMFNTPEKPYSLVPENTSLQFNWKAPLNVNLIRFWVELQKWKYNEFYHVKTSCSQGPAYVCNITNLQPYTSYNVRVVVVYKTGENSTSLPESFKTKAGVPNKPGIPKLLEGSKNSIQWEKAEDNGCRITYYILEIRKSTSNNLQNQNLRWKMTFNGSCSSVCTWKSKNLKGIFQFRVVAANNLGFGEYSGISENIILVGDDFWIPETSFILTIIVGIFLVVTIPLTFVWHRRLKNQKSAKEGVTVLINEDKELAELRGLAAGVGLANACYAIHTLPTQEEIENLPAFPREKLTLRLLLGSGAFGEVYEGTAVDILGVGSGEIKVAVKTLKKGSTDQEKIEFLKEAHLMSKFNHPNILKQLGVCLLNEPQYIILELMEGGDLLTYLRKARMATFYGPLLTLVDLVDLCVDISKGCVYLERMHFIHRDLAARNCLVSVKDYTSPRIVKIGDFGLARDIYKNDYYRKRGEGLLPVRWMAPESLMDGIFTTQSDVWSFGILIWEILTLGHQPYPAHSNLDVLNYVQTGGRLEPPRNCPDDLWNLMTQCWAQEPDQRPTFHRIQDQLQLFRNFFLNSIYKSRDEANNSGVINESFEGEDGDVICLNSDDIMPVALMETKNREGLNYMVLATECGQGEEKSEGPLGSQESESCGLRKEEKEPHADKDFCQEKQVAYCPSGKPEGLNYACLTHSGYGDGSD
Sequence of NIM1 (human) (Q8IY84 whole entry, looked up): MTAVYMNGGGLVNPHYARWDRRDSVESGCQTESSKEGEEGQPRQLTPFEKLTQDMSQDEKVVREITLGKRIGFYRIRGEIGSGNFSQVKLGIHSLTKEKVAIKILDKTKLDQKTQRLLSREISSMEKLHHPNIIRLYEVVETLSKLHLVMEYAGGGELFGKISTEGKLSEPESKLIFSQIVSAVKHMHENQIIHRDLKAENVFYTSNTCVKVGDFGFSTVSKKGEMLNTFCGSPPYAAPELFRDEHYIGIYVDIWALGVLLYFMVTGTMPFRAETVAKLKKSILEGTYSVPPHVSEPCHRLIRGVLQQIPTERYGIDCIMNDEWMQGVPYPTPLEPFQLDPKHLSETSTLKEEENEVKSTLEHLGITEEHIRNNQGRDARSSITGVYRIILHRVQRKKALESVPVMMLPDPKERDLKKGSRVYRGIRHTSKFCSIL

COc1ccc(-c2ccc3c(N4CCOCC4)nc(N4C[C@@H](C)O[C@@H](C)C4)nc3n2)cc1CO
kinase still bound, per cent of control [1]: 99% | kinase still bound, per cent of control [2]: 92% | kinase still bound, per cent of control [3]: 98% | kinase still bound, per cent of control [4]: 87% | per cent of control [5]: 100% | per cent of control [6]: 100% | per cent of control [7]: 73% | kinase still bound, per cent of control [8]: 100% | kinase still bound, per cent of control [9]: 95% | kinase still bound, per cent of control [10]: 100% | kinase still bound, per cent of control [11]: 90% | kinase still bound, per cent of control [12]: 83% | kinase still bound, per cent of control [13]: 100% | kinase still bound, per cent of control [14]: 100% | kinase still bound, per cent of control [15]: 97% | kinase still bound, per cent of control [16]: 97% | kinase still bound, per cent of control [17]: 100% | kinase still bound, per cent of control [18]: 100% | kinase still bound, per cent of control [19]: 92% | kinase still bound, per cent of control [20]: 100% | kinase still bound, per cent of control [21]: 99% | kinase still bound, per cent of control [22]: 88% | kinase still bound, per cent of control [23]: 100% | kinase still bound, per cent of control [24]: 88% | kinase still bound, per cent of control [25]: 100% | kinase still bound, per cent of control [26]: 97% | kinase still bound, per cent of control [27]: 77% | kinase still bound, per cent of control [28]: 76% | kinase still bound, per cent of control [29]: 100% | kinase still bound, per cent of control [30]: 92% | kinase still bound, per cent of control [31]: 97% | kinase still bound, per cent of control [32]: 82% | kinase still bound, per cent of control [33]: 100% | kinase still bound, per cent of control [34]: 100% | kinase still bound, per cent of control [35]: 100% | kinase still bound, per cent of control [36]: 100% | kinase still bound, per cent of control [37]: 76% | kinase still bound, per cent of control [38]: 100% | kinase still bound, per cent of control [39]: 87% | kinase still bound, per cent of control [40]: 100% | kinase still bound, per cent of control [41]: 83%

From the kinase profiling compilation of Christmann-Franck et al. (2016)
